Calls of active or inactive are those of the source. The rule behind the calls is not given here.

Assay [1] concerns the target T1, Calpain-1 catalytic subunit (Sus scrofa, UniProt P35750).
T1 sequence (P35750 whole entry): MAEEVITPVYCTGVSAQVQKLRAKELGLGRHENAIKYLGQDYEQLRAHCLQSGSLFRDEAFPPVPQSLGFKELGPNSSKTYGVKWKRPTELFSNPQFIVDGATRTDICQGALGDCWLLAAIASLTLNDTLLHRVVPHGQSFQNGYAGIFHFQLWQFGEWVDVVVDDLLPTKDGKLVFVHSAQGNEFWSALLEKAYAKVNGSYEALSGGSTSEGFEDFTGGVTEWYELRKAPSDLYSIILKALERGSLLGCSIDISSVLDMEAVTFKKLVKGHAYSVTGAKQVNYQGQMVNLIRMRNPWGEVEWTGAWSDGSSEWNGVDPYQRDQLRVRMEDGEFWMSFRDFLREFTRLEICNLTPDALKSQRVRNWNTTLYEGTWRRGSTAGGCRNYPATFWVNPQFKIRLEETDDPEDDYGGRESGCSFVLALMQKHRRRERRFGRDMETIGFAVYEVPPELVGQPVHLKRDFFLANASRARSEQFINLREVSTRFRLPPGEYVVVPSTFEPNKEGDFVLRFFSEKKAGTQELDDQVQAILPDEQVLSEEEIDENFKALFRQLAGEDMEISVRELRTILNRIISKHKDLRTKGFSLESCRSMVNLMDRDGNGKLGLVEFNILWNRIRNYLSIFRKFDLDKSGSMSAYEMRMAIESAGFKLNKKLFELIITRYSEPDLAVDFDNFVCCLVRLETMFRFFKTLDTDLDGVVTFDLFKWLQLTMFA
Nature of the assay: Inhibition of Ca2+-dependent activation of porcine calpain-1 using SucLY-AMC as substrate.

The target of assay [2] is T1, Calpain-1 catalytic subunit. As to the kind of experiment: Inhibition of Ca2+-dependent activation of porcine calpain-1 using H-K(FAM)-EVYGMMK(DABCYL)-OH as substrate by FRET assay.
The target in assay [3] is T2, Calpain-1 catalytic subunit (Homo sapiens, UniProt P07384).
T2 sequence (P07384 whole entry): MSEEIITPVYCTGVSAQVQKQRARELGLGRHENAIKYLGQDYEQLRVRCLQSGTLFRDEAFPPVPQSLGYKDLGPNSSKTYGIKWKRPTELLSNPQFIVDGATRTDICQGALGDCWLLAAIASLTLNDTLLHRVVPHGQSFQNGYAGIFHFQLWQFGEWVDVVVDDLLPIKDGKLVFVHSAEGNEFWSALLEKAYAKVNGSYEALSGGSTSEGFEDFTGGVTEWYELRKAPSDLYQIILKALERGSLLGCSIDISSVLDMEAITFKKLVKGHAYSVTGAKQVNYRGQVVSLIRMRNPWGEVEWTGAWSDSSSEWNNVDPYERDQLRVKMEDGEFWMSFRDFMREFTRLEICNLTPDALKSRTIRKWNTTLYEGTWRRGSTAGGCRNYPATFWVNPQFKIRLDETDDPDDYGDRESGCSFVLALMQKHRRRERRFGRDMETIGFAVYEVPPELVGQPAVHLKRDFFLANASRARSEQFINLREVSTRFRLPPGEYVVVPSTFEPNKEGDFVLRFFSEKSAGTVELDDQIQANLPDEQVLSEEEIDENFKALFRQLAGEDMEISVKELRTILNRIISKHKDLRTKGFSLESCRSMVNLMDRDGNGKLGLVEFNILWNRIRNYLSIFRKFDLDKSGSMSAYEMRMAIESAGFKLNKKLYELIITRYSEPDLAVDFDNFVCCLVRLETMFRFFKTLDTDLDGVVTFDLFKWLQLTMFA
Nature of the assay: Inhibition of human erythrocytes mu-calpain using SLLVY-AMC as substrate after 60 mins.

The target of assay [4] is T3, Calpain-2 catalytic subunit (Homo sapiens, UniProt P17655).
T3 sequence (P17655 whole entry): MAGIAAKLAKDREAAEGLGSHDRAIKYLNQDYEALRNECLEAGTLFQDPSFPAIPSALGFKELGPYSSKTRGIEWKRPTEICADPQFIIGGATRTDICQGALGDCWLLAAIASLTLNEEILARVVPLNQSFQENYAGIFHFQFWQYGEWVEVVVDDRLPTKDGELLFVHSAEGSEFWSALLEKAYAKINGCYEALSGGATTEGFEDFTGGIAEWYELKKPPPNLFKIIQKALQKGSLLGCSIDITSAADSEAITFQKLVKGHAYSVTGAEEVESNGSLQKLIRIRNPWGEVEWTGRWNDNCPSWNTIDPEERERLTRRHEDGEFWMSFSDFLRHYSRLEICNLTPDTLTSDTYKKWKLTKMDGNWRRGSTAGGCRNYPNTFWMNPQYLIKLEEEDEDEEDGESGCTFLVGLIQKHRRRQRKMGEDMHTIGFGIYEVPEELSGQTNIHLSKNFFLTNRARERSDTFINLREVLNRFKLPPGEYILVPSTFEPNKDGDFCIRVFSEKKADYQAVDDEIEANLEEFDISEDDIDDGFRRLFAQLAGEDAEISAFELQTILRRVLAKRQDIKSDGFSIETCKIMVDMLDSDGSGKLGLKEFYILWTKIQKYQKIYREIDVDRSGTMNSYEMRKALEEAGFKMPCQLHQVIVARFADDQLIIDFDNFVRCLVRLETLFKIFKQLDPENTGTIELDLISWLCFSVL
Nature of the assay: Inhibition of calpain-2 (unknown origin).

Assay [5] concerns the target T4, Calpain-1 catalytic subunit (Homo sapiens) (UniProt P07384).
T4 sequence (whole entry): T2 sequence (P07384 whole entry)
As to the kind of experiment: Inhibition of calpain-1 in human neutrophils assessed as cell spreading at 10 uM.

The term IC50 denotes the concentration that inhibits the measured activity by half. Low readings indicate higher potency, high ones lower potency. By Ki is commonly meant a measure of affinity in units of concentration, obtained from inhibition or displacement. Read a low Ki as higher affinity. On to `O=C(O)/C(S)=C/c1ccc(I)cc1`, for which the IC50 amounted to 5200 nM in assay [1] and 2200 nM in assay [2]. Also, the values for the Ki in assay [3] and in assay [4] were 210 nM and 370 nM, respectively.

With `O=C(O)/C(S)=C/c1ccccc1Br`, the values for the IC50 in assay [1] and in assay [2] were 9100 nM and 21000 nM, respectively.

Take `O=C(O)/C(S)=C/c1c[nH]c2ccc(Cl)cc12`: the IC50 was determined as 50 nM in assay [1] and 250 nM in assay [2].

In the case of `O=C(O)/C(S)=C/c1cccc(Br)c1`, the half-inhibitory concentration (IC50) amounted to 8400 nM in assay [1] and 4000 nM in assay [2].

Take `O=C(O)/C(S)=C/c1c[nH]c2cc(Br)ccc12`: the IC50 came out at 90 nM in assay [1] and 7 nM in assay [2]. Also, in assay [5], the inhibition entry is “Active”.

Consider `O=C(O)/C(S)=C/c1c[nH]c2ccc(Br)cc12`, for which the half-maximal inhibitory concentration (IC50) was determined as 20 nM in assay [1] and 6 nM in assay [2].

Take `O=C(O)/C(S)=C/c1c[nH]c2cc(F)ccc12`: the IC50 in assay [1] worked out at 300 nM; in assay [2], 10 nM. Also, in assay [5], the inhibition result is “Active”.

Turning to `O=C(O)/C(S)=C/c1c[nH]c2c(Cl)cccc12`, the IC50 was determined as 90 nM in assay [1] and 10 nM in assay [2].

With `O=C(O)/C(S)=C/c1ccc(Cl)cc1`, the concentration for half-maximal inhibition (IC50) in assay [1] amounted to 15000 nM; in assay [2], 2600 nM.

Regarding `O=C(O)/C(S)=C/c1c[nH]c2cc(Cl)ccc12`, the IC50 is 100 nM in assay [1] and 210 nM in assay [2]. The inhibition result in assay [5] was “Active”.

For `O=C(O)/C(S)=C/c1c[nH]c2c(Br)cccc12`, the half-maximal inhibitory concentration (IC50) in assay [1] amounted to 70 nM; in assay [2], 2 nM.

In the case of `O=C(O)/C(S)=C/c1cccc(I)c1`, the IC50 in assay [1] was determined as 23900 nM; in assay [2], 4300 nM.

For the compound `O=C(O)/C(S)=C/c1ccc(F)cc1`, the 50% inhibitory concentration (IC50) in assay [1] is 5600 nM; in assay [2], 6900 nM.

Consider `O=C(O)/C(S)=C/c1c[nH]c2c(I)cccc12`, for which the half-maximal inhibitory concentration (IC50) in assay [1] came to 220 nM; in assay [2], 90 nM.

Take `O=C(O)/C(S)=C/c1c[nH]c2cc(I)ccc12`: the results for the half-maximal inhibitory concentration (IC50) in assay [1] and in assay [2] were 300 nM and 170 nM, respectively.

As to `O=C(O)/C(S)=C/c1c[nH]c2cccc(Cl)c12`, the figures for the concentration for half-maximal inhibition (IC50) in assay [1] and in assay [2] were 140 nM and 20 nM, respectively.

In the case of `O=C(O)/C(S)=C/c1ccccc1F`, the figures for the IC50 in assay [1] and in assay [2] were 23200 nM and 21900 nM, respectively.

Regarding `O=C(O)/C(S)=C/c1c[nH]c2ccc(F)cc12`, the IC50 in assay [1] was found to be 930 nM; in assay [2], 800 nM. Besides, the inhibitory constant (Ki) in assay [3] was 260 nM; in assay [4] it was 5330 nM.

Take `O=C(O)/C(S)=C/c1cccc(Cl)c1`: the IC50 in assay [1] worked out at 13100 nM; in assay [2] it was 4200 nM.

`O=C(O)/C(S)=C/c1c[nH]c2c(F)cccc12`: the half-maximal inhibitory concentration (IC50) in assay [1] amounted to 110 nM; in assay [2], 120 nM.

Consider `O=C(O)/C(S)=C/c1c[nH]c2cccc(F)c12`, for which the IC50 in assay [1] turned out to be 300 nM; in assay [2], 10 nM.

Regarding `O=C(O)/C(S)=C/c1ccccc1Cl`, the IC50 in assay [1] amounted to 20700 nM; in assay [2], 11900 nM.

Take `O=C(O)/C(S)=C/c1ccc(Br)cc1`: the 50% inhibitory concentration (IC50) in assay [1] and in assay [2] was 1500 nM in each case.

With `O=C(O)/C(S)=C/c1cccc(F)c1`, the IC50 came out at 31500 nM in assay [1] and 19000 nM in assay [2].

Turning to `O=C(O)/C(S)=C/c1c[nH]c2cccc(Br)c12`, the IC50 in assay [1] is 100 nM; in assay [2], 6 nM.

On to `O=C(O)/C(S)=C/c1c[nH]c2ccc(I)cc12`, for which the values for the IC50 in assay [1] and in assay [2] were 90 nM and 100 nM, respectively.

Source of the values: ChEMBL document CHEMBL3217751, “Potent inhibition of Ca2+-dependent activation of calpain-1 by novel mercaptoacrylates” (Medchemcomm, 2012).
